Read-outs that look alike come from different tables or passages of the source.
How the values were obtained:
[1] = system: Mycoplasma gallisepticum (MG) S6; assay: In vitro sensitivity test (liquid dilution method); format: cell-based; settings: 37°C, 7 days
[2] = system: Mycoplasma synoviae (MS) 1853; assay: In vitro sensitivity test (liquid dilution method); format: cell-based; settings: 37°C, 7 days
Method in brief: (§1)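 MS (liquid dilution): Frey medium + 12 % pig-serum + 0.01 % βNAD, 37°C, 7 days. S.au (agar dilution): Mueller Hinton agar, 37°C, 20 to 24 hours. P.pis: heart infusion agar + 1.5 % NaCl, 25°C, 40 to 48 hours. All strains animal-origin.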

[3] = system: Mycoplasma synoviae (MS) F10-2as; assay: In vitro sensitivity test (liquid dilution method); format: cell-based; settings: 37°C, 7 days
Method in brief: as §1

[4] = system: Mycoplasma gallisepticum (MG) T-7-T, TS-resistant strain isolated from the field; assay: In vitro sensitivity test (liquid dilution method); format: cell-based; settings: 37°C, 7 days
[5] = system: Mycoplasma hyopneumoniae (Mh) ST-11; assay: In vitro sensitivity test (liquid dilution method); format: cell-based; settings: 37°C, 7 days
[6] = system: Hemophilus pleuropneumonia (H.pp) M-1; assay: In vitro sensitivity test (agar dilution method); format: cell-based; settings: 37°C, 20 hours, 10 % CO₂
[7] = system: Staphylococcus aureus (S.au) 209P; assay: In vitro sensitivity test (agar dilution method); format: cell-based; settings: 37°C, 20 to 24 hours
Method in brief: (§2)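 For the fish-origin P.pis strain this meant heart infusion agar supplemented with 1.5 % NaCl at 25°C for 40 to 48 hours. S.au plates used Mueller Hinton agar at 37°C for 20 to 24 hours. MS broths used Frey medium with 12 % pig-serum and 0.01 % βNAD at 37°C for 7 days.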

[8] = system: Salmonella typhimurium (S.typhi) 13311; assay: In vitro sensitivity test (agar dilution method); format: cell-based; settings: 37°C, 20 to 24 hours
[9] = system: Escherichia coli (E.coli) E-17, chicken-origin strain isolated from the field; assay: In vitro sensitivity test (agar dilution method); format: cell-based; settings: 37°C, 20 to 24 hours
Method in brief: as §2

[10] = system: Bordetella bronchiseptica (B.br) ABU-1; assay: In vitro sensitivity test (agar dilution method); format: cell-based; settings: 37°C, 20 to 24 hours
[11] = system: Hemophilus paragallinarum (H.pg) S-1; assay: In vitro sensitivity test (agar dilution method); format: cell-based; settings: agar dilution, 37°C, 20 hours, 10 % CO₂
[12] = system: Hemophilus paragallinarum (H.pg) 221; assay: In vitro sensitivity test (agar dilution method); format: cell-based; settings: agar dilution, 37°C, 20 hours, 10 % CO₂
[13] = system: Escherichia coli (E.coli) JC-2; assay: In vitro sensitivity test (agar dilution method); format: cell-based; settings: 37°C, 20 to 24 hours
[14] = system: Streptococcus sp (Str.sp) SNO6119; assay: In vitro sensitivity test; format: cell-based; settings: 25°C, 40 to 48 hours
[15] = system: Pasteurella piscicida (P.pis) No. 2; assay: In vitro sensitivity test; format: cell-based; settings: 25°C, 40 to 48 hours
Method in brief: as §1

[16] = system: TS-resistant strain of MG; format: in vivo, chicken; settings: for Infectious index Left air sack + / Infectious index Left air sack ++ / Infectious index Left air sack +++ / Infectious index Left air sack - / Infectious index Right air sack + / Infectious index Right air sack ++ / Infectious index Right air sack +++ / Infectious index Right air sack -: count of fowl; for Infectious index Left air sack + / Infectious index Left air sack ++ / Infectious index Left air sack +++ / Infectious index Left air sack - / Infectious index Right air sack + / Infectious index Right air sack ++ / Infectious index Right air sack +++ / Infectious index Right air sack - / Number of fowl having air sack lesions: 10-days chicken, 1.2 x 10³ CFU/fowl
TS-resistant MG [17] = assay: Experimental MG infection to chicken, through bait; format: in vivo
TS-resistant MG [18] = assay: Experimental MG infection to chicken, through injection; format: in vivo; settings: 5 fowl tested, 10-days chicken, 3.1 x 10³ CFU/fowl; for Infectious index Left air sack + (number of fowl) / Infectious index Right air sack + (number of fowl): grade + = slight infection; for Infectious index Left air sack ++ (number of fowl) / Infectious index Right air sack ++ (number of fowl): grade ++ = considerable infection; for Infectious index Left air sack +++ (number of fowl) / Infectious index Right air sack +++ (number of fowl): grade +++ = severe infection; for Infectious index Left air sack - (number of fowl) / Infectious index Right air sack - (number of fowl): grade - = no infection
[19] = count of fowl, bait 1100 ppm/Day, 9-days chicken, 1.8 x 10³ CFU/fowl

## NC[C@@]12CCC[C@@H]1CN(c1cc3c(cc1F)c(=O)c(C(=O)O)cn3C1CC1)C2 (relative stereo) [I-8, 7-[(1R*,5S*)-1-aminomethyl-3-azabicyclo[3.3.0]octan-3-yl]-1-cyclopropyl-6-fluoro-1,4-dihydro-4-oxo-3-quinolinecarboxylic acid]
[1]
  In vitro Sensitivity Test MG S6: <0.00313 µg/mL
[2]
  In vitro Sensitivity Test MS 1853: 0.1 µg/mL
[3]
  In vitro Sensitivity Test MS F10-2as: 0.1 µg/ml
[4]
  In vitro Sensitivity Test MG T-7-T: 0.00625 µg/mL
[5]
  In vitro Sensitivity Test Mh ST-11: <0.025 µg/mL
[6]
  In vitro Sensitivity Test H.pp M-1: 0.05 µg/mL
[7]
  In vitro Sensitivity Test S.au 209P: <0.0125 µg/mL
[8]
  In vitro Sensitivity Test S.typhi 13311: 0.2 µg/mL
[9]
  In vitro Sensitivity Test E.coli E-17: 0.05 µg/ml
[10]
  In vitro Sensitivity Test B.br ABU-1: 1.56 µg/mL
[11]
  In vitro Sensitivity Test H.pg S-1: 0.2 µg/mL
[12]
  In vitro Sensitivity Test H.pg 221: 0.2 µg/mL
[13]
  In vitro Sensitivity Test E.coli JC-2: 0.05 µg/mL
[14]
  In vitro Sensitivity Test Str.sp SNO6119: 0.78 µg/mL
[15]
  In vitro Sensitivity Test P.pis No. 2: 0.78 µg/mL
[16]; oral 1.56 mg/kg
  Infectious index Left air sack +: 0
  Infectious index Left air sack ++: 0
  Infectious index Left air sack +++: 0
  Infectious index Left air sack -: 5
  Infectious index Right air sack +: 3
  Infectious index Right air sack ++: 2
  Infectious index Right air sack +++: 0
  Infectious index Right air sack -: 0
  Number of fowl having air sack lesions: 5
[16]; oral 3.13 mg/kg
  Infectious index Left air sack +: 0
  Infectious index Left air sack ++: 0
  Infectious index Left air sack +++: 0
  Infectious index Left air sack -: 5
  Infectious index Right air sack +: 1
  Infectious index Right air sack ++: 0
  Infectious index Right air sack +++: 0
  Infectious index Right air sack -: 4
  Number of fowl having air sack lesions: 1
[16]; oral 6.25 mg/kg
  Infectious index Left air sack +: 0
  Infectious index Left air sack ++: 0
  Infectious index Left air sack +++: 0
  Infectious index Left air sack -: 5
  Infectious index Right air sack +: 0
  Infectious index Right air sack ++: 0
  Infectious index Right air sack +++: 0
  Infectious index Right air sack -: 5
  Number of fowl having air sack lesions: 0
[16]; in vivo, po
  antimicrobial activity compared with ERFX: two times more effective than ERFX
[16]; oral administration, MG-infected chicken
  complete inihibition of the lesions in air sac at a concentration of: about 3.13 mg/kg

## Tylosin® [TSP, reference compound]
[1]
  In vitro Sensitivity Test MG S6: 0.05 µg/mL
[2]
  In vitro Sensitivity Test MS 1853: 0.1 µg/mL
[3]
  In vitro Sensitivity Test MS F10-2as: 0.1 µg/ml
[4]
  In vitro Sensitivity Test MG T-7-T: 6.25 µg/mL
[5]
  In vitro Sensitivity Test Mh ST-11: 0.1 µg/mL
[6]
  In vitro Sensitivity Test H.pp M-1: 25.0 µg/mL
[7]
  In vitro Sensitivity Test S.au 209P: 0.39 µg/mL
[8]
  In vitro Sensitivity Test S.typhi 13311: 0.39 µg/mL
[13]
  In vitro Sensitivity Test E.coli JC-2: 25.0 µg/mL
TS-resistant MG [17]; bait 1100 ppm/Day, 9-days chicken, 1.8 x 10³ CFU/fowl
  Number of fowl having air sack lesions: 5
TS-resistant MG [17]; [19]
  Infectious index Left air sack +: 1
  Infectious index Left air sack ++: 0
  Infectious index Left air sack +++: 0
  Infectious index Left air sack -: 4
  Infectious index Right air sack +: 3
  Infectious index Right air sack ++: 2
  Infectious index Right air sack +++: 0
  Infectious index Right air sack -: 0
TS-resistant MG [17]; through bait, 1100 ppm
  inhibition of lesions in air sacs: could not inhibit lesions in air sacs

## N[C@H]1CCC[C@H]2CN(c3c(F)cc4c(=O)c(C(=O)O)cn(C5CC5)c4c3F)CC[C@H]21 (relative stereo) [I-6]
[1]
  In vitro Sensitivity Test MG S6: 0.00625 µg/mL
[2]
  In vitro Sensitivity Test MS 1853: 0.2 µg/mL
[3]
  In vitro Sensitivity Test MS F10-2as: 0.2 µg/ml
[4]
  In vitro Sensitivity Test MG T-7-T: 0.00625 µg/mL
[5]
  In vitro Sensitivity Test Mh ST-11: <0.025 µg/mL
[6]
  In vitro Sensitivity Test H.pp M-1: 0.2 µg/mL
[7]
  In vitro Sensitivity Test S.au 209P: ≦0.0125 µg/ml
[8]
  In vitro Sensitivity Test S.typhi 13311: 0.2 µg/mL
[9]
  In vitro Sensitivity Test E.coli E-17: 0.2 µg/ml
[10]
  In vitro Sensitivity Test B.br ABU-1: 3.13 µg/mL
[11]
  In vitro Sensitivity Test H.pg S-1: >1.56 µg/mL
[12]
  In vitro Sensitivity Test H.pg 221: >1.56 µg/mL
[13]
  In vitro Sensitivity Test E.coli JC-2: 0.1 µg/mL
TS-resistant MG [18]; Dose 1.56 mg/kg
  Number of fowl having air sack lesions: 0
  Infectious index Left air sack + (number of fowl): 0
  Infectious index Right air sack + (number of fowl): 0
  Infectious index Left air sack ++ (number of fowl): 0
  Infectious index Right air sack ++ (number of fowl): 0
  Infectious index Left air sack +++ (number of fowl): 0
  Infectious index Right air sack +++ (number of fowl): 0
  Infectious index Left air sack - (number of fowl): 5
  Infectious index Right air sack - (number of fowl): 5
TS-resistant MG [18]; Dose 3.13 mg/kg
  Number of fowl having air sack lesions: 0
  Infectious index Left air sack + (number of fowl): 0
  Infectious index Right air sack + (number of fowl): 0
  Infectious index Left air sack ++ (number of fowl): 0
  Infectious index Right air sack ++ (number of fowl): 0
  Infectious index Left air sack +++ (number of fowl): 0
  Infectious index Right air sack +++ (number of fowl): 0
  Infectious index Left air sack - (number of fowl): 5
  Infectious index Right air sack - (number of fowl): 0
[14]
  In vitro Sensitivity Test Str.sp SNO6119: 0.39 µg/mL
[15]
  In vitro Sensitivity Test P.pis No. 2: 0.78 µg/mL
[16]; oral 3.13 mg/kg
  Infectious index Left air sack +: 0
  Infectious index Left air sack ++: 0
  Infectious index Left air sack +++: 0
  Infectious index Left air sack -: 5
  Infectious index Right air sack +: 0
  Infectious index Right air sack ++: 0
  Infectious index Right air sack +++: 0
  Infectious index Right air sack -: 5
  Number of fowl having air sack lesions: 0
[16]; oral 6.25 mg/kg
  Infectious index Left air sack +: 1
  Infectious index Left air sack ++: 0
  Infectious index Left air sack +++: 0
  Infectious index Left air sack -: 4
  Infectious index Right air sack +: 1
  Infectious index Right air sack ++: 4
  Infectious index Right air sack +++: 0
  Infectious index Right air sack -: 0
  Number of fowl having air sack lesions: 5
[16]; oral 12.5 mg/kg
  Infectious index Left air sack +: 0
  Infectious index Left air sack ++: 0
  Infectious index Left air sack +++: 0
  Infectious index Left air sack -: 5
  Infectious index Right air sack +: 0
  Infectious index Right air sack ++: 4
  Infectious index Right air sack +++: 1
  Infectious index Right air sack -: 0
  Number of fowl having air sack lesions: 5

Reference: EP0429304A2, “Pyridone-carboxylic acid derivatives and their use as veterinary medicines” (SHIONOGI SEIYAKU KABUSHIKI KAISHA trading under the name of …, priority 1989, dated 1991)
